Assay results published in patent publication US10670605B2, “Cysteine reactive probes and uses thereof” (The Scripps Research Institute, priority 2015, dated 2020).

Tests used:
Assay in all cases: Competitive isoTOP-ABPP in situ (fragment-treated cells)
Assay type in all cases: cell-based
Details in all cases: 200 μM, insitu
[1] = biological target: T1, cysteines in MDA-MB-231 and Ramos cells (Homo sapiens, UniProt Q9Y3A3)
T1 sequence (Q9Y3A3 1-225): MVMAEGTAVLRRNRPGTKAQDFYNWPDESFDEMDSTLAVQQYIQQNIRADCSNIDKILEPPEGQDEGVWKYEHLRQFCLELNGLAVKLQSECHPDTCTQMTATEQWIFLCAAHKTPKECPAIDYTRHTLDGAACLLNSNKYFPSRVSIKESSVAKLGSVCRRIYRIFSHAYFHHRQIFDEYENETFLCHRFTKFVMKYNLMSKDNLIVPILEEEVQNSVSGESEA

[2] = biological target: T2, cysteines in MDA-MB-231 and Ramos cells (Homo sapiens, UniProt O95336)
T2 sequence (O95336 1-258): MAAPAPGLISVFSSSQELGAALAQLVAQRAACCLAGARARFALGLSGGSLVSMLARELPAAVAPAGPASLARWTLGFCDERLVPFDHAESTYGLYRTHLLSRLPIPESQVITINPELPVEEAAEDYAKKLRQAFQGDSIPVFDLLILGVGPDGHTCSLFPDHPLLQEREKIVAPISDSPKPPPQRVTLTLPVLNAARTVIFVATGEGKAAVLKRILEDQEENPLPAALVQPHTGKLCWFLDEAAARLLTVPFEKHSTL

[3] = biological target: T3, cysteines in MDA-MB-231 and Ramos cells (Homo sapiens, UniProt Q96HE7)
T3 sequence (Q96HE7 24-468): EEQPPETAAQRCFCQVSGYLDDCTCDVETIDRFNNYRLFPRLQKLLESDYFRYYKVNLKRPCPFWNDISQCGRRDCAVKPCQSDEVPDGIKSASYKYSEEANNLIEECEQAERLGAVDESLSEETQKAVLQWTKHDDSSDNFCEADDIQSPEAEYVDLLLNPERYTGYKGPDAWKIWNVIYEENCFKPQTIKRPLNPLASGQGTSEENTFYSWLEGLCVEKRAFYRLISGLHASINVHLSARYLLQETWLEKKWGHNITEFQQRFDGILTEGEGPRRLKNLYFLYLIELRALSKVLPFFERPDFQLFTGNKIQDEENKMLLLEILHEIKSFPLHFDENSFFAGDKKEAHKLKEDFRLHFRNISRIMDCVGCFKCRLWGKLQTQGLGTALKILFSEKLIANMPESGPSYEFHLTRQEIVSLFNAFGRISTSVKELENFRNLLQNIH

[4] = biological target: T4, cysteines in MDA-MB-231 and Ramos cells (Homo sapiens, UniProt Q9NQR4)
T4 sequence (Q9NQR4 1-276): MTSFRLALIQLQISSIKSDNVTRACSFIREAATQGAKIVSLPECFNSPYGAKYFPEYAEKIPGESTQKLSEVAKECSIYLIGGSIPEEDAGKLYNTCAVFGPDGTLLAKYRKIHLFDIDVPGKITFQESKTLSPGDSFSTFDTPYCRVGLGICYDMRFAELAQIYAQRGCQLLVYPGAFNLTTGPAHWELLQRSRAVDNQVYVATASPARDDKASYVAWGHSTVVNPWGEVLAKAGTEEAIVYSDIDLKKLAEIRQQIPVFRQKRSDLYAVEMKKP

[5] = biological target: cysteines in MDA-MB-231 and Ramos cells (Homo sapiens, UniProt P38606)
Sequence of cysteines in MDA-MB-231 and Ramos cells (Homo sapiens, UniProt P38606) (P38606 whole entry): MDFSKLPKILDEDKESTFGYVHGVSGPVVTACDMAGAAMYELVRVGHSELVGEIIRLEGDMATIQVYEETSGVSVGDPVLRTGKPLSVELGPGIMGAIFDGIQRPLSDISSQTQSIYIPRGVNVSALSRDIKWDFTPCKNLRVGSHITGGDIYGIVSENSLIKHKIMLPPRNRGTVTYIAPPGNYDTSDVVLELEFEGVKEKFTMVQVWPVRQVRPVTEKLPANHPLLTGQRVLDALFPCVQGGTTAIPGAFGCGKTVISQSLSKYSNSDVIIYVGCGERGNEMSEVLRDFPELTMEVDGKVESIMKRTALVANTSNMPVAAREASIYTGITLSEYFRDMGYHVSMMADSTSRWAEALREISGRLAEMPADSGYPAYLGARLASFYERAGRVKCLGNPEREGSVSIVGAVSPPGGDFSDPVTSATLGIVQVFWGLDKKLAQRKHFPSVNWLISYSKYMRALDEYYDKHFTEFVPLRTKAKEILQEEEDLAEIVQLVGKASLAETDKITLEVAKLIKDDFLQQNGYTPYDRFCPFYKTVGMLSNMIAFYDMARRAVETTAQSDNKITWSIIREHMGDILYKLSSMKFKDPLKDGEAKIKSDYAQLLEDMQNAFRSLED

[6] = biological target: T5, cysteines in MDA-MB-231 and Ramos cells (Homo sapiens, UniProt Q96CM8)
T5 sequence (Q96CM8 42-615): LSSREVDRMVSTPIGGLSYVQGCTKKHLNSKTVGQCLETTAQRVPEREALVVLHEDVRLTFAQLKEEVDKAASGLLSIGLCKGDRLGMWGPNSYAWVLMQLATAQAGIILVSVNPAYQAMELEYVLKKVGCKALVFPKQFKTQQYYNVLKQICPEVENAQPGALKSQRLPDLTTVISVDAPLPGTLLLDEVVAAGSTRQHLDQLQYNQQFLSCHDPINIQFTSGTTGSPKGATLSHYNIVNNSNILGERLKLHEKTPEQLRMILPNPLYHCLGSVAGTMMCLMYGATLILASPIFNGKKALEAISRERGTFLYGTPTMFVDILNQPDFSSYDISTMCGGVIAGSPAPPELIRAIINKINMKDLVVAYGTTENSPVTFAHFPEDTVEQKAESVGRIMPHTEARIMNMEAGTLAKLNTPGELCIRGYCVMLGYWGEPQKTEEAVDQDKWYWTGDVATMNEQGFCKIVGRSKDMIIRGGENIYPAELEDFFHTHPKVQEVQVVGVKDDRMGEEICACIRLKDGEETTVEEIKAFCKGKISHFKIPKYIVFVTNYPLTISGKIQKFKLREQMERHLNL

[7] = biological target: cysteines in MDA-MB-231 and Ramos cells (Homo sapiens, UniProt Q9BUH6)
Sequence of cysteines in MDA-MB-231 and Ramos cells (Homo sapiens, UniProt Q9BUH6) (Q9BUH6 whole entry): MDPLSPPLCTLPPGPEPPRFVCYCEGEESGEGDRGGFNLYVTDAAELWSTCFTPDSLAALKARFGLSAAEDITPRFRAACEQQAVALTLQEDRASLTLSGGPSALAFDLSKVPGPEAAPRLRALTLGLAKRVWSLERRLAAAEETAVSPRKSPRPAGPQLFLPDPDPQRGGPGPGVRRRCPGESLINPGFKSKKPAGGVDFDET

[8] = biological target: cysteines in MDA-MB-231 and Ramos cells (Homo sapiens, UniProt Q9NYL2)
Sequence of cysteines in MDA-MB-231 and Ramos cells (Homo sapiens, UniProt Q9NYL2) (Q9NYL2 whole entry): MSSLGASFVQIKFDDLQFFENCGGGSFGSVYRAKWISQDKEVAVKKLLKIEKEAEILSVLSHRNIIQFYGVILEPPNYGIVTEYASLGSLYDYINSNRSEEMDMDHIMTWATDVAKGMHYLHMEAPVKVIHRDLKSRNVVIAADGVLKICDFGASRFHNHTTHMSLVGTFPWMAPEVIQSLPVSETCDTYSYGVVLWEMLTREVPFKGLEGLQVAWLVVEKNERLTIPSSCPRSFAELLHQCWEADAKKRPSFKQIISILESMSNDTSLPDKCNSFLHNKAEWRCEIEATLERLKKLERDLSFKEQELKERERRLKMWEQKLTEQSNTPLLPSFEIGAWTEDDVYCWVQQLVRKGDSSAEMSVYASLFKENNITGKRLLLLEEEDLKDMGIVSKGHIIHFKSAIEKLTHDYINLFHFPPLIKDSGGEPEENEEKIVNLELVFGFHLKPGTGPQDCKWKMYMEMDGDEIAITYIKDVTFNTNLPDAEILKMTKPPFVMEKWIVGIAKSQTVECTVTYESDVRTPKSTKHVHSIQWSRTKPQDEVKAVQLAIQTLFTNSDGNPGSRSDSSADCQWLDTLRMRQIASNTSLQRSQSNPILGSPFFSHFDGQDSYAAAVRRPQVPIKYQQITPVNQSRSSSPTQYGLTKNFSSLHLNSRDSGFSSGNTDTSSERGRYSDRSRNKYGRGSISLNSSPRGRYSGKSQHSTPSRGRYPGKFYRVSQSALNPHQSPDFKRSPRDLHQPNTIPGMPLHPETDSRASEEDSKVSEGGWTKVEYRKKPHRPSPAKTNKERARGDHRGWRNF

[9] = biological target: T6, cysteines in MDA-MB-231 and Ramos cells (Homo sapiens, UniProt P42224)
T6 sequence (P42224 1-750): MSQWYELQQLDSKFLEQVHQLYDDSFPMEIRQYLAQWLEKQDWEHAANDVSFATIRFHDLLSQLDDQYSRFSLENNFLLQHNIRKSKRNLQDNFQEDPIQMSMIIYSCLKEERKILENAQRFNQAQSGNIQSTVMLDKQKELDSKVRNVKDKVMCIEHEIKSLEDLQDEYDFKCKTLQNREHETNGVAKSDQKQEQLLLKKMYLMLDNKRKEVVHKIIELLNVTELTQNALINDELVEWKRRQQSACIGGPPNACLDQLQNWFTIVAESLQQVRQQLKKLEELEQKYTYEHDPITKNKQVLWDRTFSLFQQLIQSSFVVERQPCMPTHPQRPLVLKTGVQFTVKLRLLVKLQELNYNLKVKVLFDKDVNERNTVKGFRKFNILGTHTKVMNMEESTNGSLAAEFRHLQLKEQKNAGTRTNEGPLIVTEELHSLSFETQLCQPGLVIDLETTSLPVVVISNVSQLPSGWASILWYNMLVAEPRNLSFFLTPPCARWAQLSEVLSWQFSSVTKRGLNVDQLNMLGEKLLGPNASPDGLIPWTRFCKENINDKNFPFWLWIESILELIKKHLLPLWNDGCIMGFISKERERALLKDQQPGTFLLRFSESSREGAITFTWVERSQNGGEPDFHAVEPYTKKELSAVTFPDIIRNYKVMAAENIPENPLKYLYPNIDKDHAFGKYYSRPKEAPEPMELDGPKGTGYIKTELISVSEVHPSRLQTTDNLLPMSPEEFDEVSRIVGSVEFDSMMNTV

SMILES | isoTOP-ABPP ratio Q9Y3A3_C134 [1]; 231 | isoTOP-ABPP ratio Q96HE7_C37 [3]; 231 | isoTOP-ABPP ratio Q96HE7_C241 [3]; 231 | isoTOP-ABPP ratio Q9NQR4_C153 [4]; 231 | isoTOP-ABPP ratio P38606_C138 [5]; 231 | isoTOP-ABPP ratio Q96CM8_C64 [6]; 231 | isoTOP-ABPP ratio Q9BUH6_C180 [7]; 231 | isoTOP-ABPP ratio Q9NYL2_C22 [8]; 231 | isoTOP-ABPP ratio P42224_C492 [9]; 231 | further results
C=CC(=O)Nc1cc(F)c(N2CCN(C(=O)OC(C)(C)C)CC2)c(F)c1 [compound 38] | 1.0 | 3.4 | 1.6 | 1.1 | 2.1 | 1.1 | 1.4 | – | – | isoTOP-ABPP ratio O95336_C32 [2]; 231: 2.8
CC1CCc2ccccc2N1C(=O)CCl (stereo not shown) [compound 45] | 2.3 | 20.0 | 2.1 | 2.0 | – | 20.0 | 5.5 | 2.3 | 20.0 | –
COc1ccc2c(c1)CCCN2C(=O)CCl [compound 2] | – | – | – | – | – | – | – | – | – | isoTOP-ABPP reactivity Q9NYL2_C22 MUTK Mitogen-activated protein kinase MLTK [8]; 231: 5.5; isoTOP-ABPP reactivity O95336_C32 PGLS [2]; 231: 14.9; isoTOP-ABPP reactivity Q96HE7_C241 ERO1L [3]; 231: 2.4; isoTOP-ABPP reactivity Q9NQR4_C153 N1T2 [4]; 231: 13.1; isoTOP-ABPP reactivity Q96CM8_C64 ACSF2 [6]; 231: 20.0; isoTOP-ABPP reactivity P42224_C492 STAT1 [9]; 231: 16.9
COc1cc2c(cc1OC)CN(C(=O)CCl)CC2 [compound 8] | – | – | – | – | – | – | – | – | – | isoTOP-ABPP reactivity Q9Y3A3_C134 MOB4 [1]; 231: 1.6; isoTOP-ABPP reactivity Q9NYL2_C22 MUTK Mitogen-activated protein kinase MLTK [8]; 231: 1.4; isoTOP-ABPP reactivity O95336_C32 PGLS [2]; 231: 20.0; isoTOP-ABPP reactivity Q96HE7_C241 ERO1L [3]; 231: 3.7; isoTOP-ABPP reactivity Q9NQR4_C153 N1T2 [4]; 231: 20.0; isoTOP-ABPP reactivity P38606_C138 ATP6V1A [5]; 231: 20.0; isoTOP-ABPP reactivity Q96CM8_C64 ACSF2 [6]; 231: 20.0; isoTOP-ABPP reactivity Q9BUH6_C180 C9orf142 [7]; 231: 6.6
CC(C)CCOCCNC(=O)CCl [compound 27] | – | – | 0.9 | 1.3 | 4.6 | 1.8 | – | 0.7 | – | isoTOP-ABPP ratio O95336_C32 [2]; 231: 0.5
O=C(CCl)N1CCN(S(=O)(=O)c2ccccc2F)CC1 [compound 10] | 1.9 | – | 2.0 | 20.0 | 20.0 | 20.0 | 3.8 | 1.2 | 20.0 | –
O=C(CCl)N1CCN(CC(=O)N2CCOCC2)CC1 [compound 29] | – | – | – | – | – | – | – | – | – | isoTOP-ABPP ratio Q9Y3A3_C134 ([1]; ramos): 1.2; isoTOP-ABPP ratio Q9NYL2_C22 ([8]; ramos): 1.2; isoTOP-ABPP ratio O95336_C32 ([2]; ramos): 3.0; isoTOP-ABPP ratio Q96HE7_C37 ([3]; ramos): 2.1; isoTOP-ABPP ratio Q96HE7_C241 ([3]; ramos): 1.3; isoTOP-ABPP ratio Q96CM8_C64 ([6]; ramos): 2.3; isoTOP-ABPP ratio P42224_C492 ([9]; ramos): 3.8; isoTOP-ABPP ratio Q9BUH6_C180 ([7]; ramos): 1.5
C=CC(=O)N(Cc1cccnc1)c1cc(C(F)(F)F)cc(C(F)(F)F)c1 [compound 31] | 1.0 | 0.6 | 0.7 | 0.6 | – | 0.8 | 0.8 | – | 0.8 | isoTOP-ABPP ratio Q9Y3A3_C134 ([1]; ramos): 1.8; isoTOP-ABPP ratio O95336_C32 ([2]; ramos): 1.7; isoTOP-ABPP ratio Q9NQR4_C153 ([4]; ramos): 1.4; isoTOP-ABPP ratio P38606_C138 ([5]; ramos): 1.7; isoTOP-ABPP ratio P42224_C492 ([9]; ramos): 1.9
